Results on one substance are retold here after patent US20070184017A1, “Anti-aging treatment using copper and zinc compositions” (priority 2006, published 2007).

In the assay the test system is wrinkling on face. The assay is described as follows: Gel composition applied to wrinkled face twice daily (Example 1). It counts as in vivo, human. The settings on record: person. The source says: A person is suffering from wrinkling on their face. A gel composition suitable for treatment of skin containing an effective amount of copper-zinc malonate active ingredient is routinely applied to their face twice daily.

As for copper-zinc malonate, the wrinkling on face entry is “reduced or eliminated”.
